Data taken from patent US20250313528A1, “NOVEL COMPOUND AND PHARMACEUTICAL COMPOSITION FOR PREVENTING OR TREATING PULMONARY FIBROSIS COMPRISING SAME AS ACTIVE INGREDIENT” (GIL MEDICAL CENTER, priority 2022, published 2025).

What was measured:
fibronectin and α-SMA [1] = test: Western blotting of fibrosis-related proteins in TGF-β1-induced MRC-5 cells; assay type: cell-based, human; conditions: for expression of fibronectin and α-SMA by concentration: MRC-5 + TGF-β1, Compound 1 at 5, 10, 20 μM, Compound 2 at 2.5, 5, 10 μM, FIG. 3; for expression levels of fibronectin and α-SMA protein: MRC-5, TGF-β1 1 ng/ml, 10 μM, FIG. 4b; for expression levels of fibronectin and α-SMA: MRC-5 induced by TGF-β1, screen of sulforaphane compounds, FIG. 2
Procedure: Since the overexpression of extracellular matrix components such as fibronectin and α-SMA serves as an indicator of fibrotic changes in tissues, MRC-5 cells induced to undergo fibrosis by TGF-β1 were treated with each compound at different concentrations to compare the expression levels of fibronectin and α-SMA.
(§1) Specifically, to extract fibronectin and α-SMA proteins, the cells were washed once with cold PBS and then RIPA buffer (150 mM NaCl, 0.5% Triton X-100, 50 mM Tris-HCl, pH 7.4, 25 mM NaF, 20 mM EGTA), which was added with a protease inhibitor cocktail, was added thereto to lyse the cells. Then, the proteins were quantified using a BCA protein assay kit. All protein samples were subjected to electrophoresis at 10 μg on 8% to 10% PAGE gels and then transferred to 0.2 μm PVDF membranes (EMD Millipore, MA, USA). The membranes to which the protein was transferred were blocked with 5% BSA or 5% skim milk for 1 hour, and then primary antibodies were added thereto and incubated overnight at 4° C. The following day, the membranes were washed three times with PBST, and then HRP-conjugated secondary antibodies were added and reacted at room temperature for 1 hour. The PVDF membranes prepared through such procedures were smeared with ECL (Luminata™ Crescendo, EMD Millipore) and exposed to a fluorescence reader to confirm the level of protein expression.
The specific experimental methods are the same as in Example 2, and sulforaphane was treated at a concentration of 20 μM, Compound 1 at 5 μM, 10 μM, and 20 μM, and Compound 2 at 2.5 μM, 5 μM, and 10 μM, respectively.
(§2) To compare the changes in fibrosis-related protein expression by treating normal MRC-5 and diseased DHLF-IPF cell lines induced with pulmonary fibrosis by TGF-β1 with SFN and the two candidate compounds, Western blotting was performed.
(§3) The specific experimental methods are the same as in Example 2. TGF-β1 was treated at 1 ng/ml to induce fibrosis, and sulforaphane and the two compounds each were treated at a concentration of 10 μM.

fibronectin and α-SMA [2] = test: Western blotting of fibrosis-related proteins in TGF-β1-induced DHLF-IPF cells; assay type: cell-based, human; conditions: TGF-β1 1 ng/ml, 10 μM, FIG. 4b
Procedure: as §1, §2, §3

DHLF-IPF cells = test: Wound healing assay, DHLF-IPF; assay type: cell-based, human; conditions: TGF-β1 treatment, 24 hours, FIG. 6
Procedure: The effects of Compound 1 and Compound 2, selected in Example 3, on cell migration (wound healing) in MRC-5 and DHLF-IPF cells were examined.
Specifically, cells (1×10^5 cells/well) were seeded in a 60 mm dish to achieve approximately 90% confluency and cultured for 24 hours. Subsequently, a straight line was scratched on the bottom with a 200 μL pipette tip, and the detached cells were removed by washing once with Dulbecco's Phosphate-Buffered Saline (DPBS). The wound was photographed under a microscope, and treatments with TGF-β1 alone, TGF-β1+SFN, TGF-β1+GSF-016, and TGF-1+GSF-018 were applied and cultured for approximately 24 hours, after which the wound was re-photographed. The images taken at 24 hours of culture were analyzed using the Image J (Fiji package) software to measure the distance between cells, and the relative migration was expressed as a percentage (%) compared to the control group.

[3] = tested on: fibronectin, collagen 1, α-SMA; test: Immunohistochemistry of fibrosis-related proteins in lung tissue, BLM model; assay type: in vivo, C57BL/6N mice; conditions: BLM mice; for expression of α-SMA, collagen, and fibronectin in lung tissue (IHC): compared to the BLM group
Procedure: (§4) Specifically, 7-week-old C57BL/6N mice were exposed to BLM (3-5 units/kg) via the airway. The compounds were administered orally at doses of 200 μg/kg and 500 μg/kg for Compound 1, and 100 μg/kg and 200 μg/kg for Compound 2, three times a week for three weeks starting the day after BLM exposure. Body weight gain was periodically measured during the experimental period, and lung weight was measured at the end of the experiment.
(§5) Specifically, the excised lung tissue was embedded in paraffin and sectioned into 4 μm slices using a microtome. These tissue sections were used for H&E, MT stain, and Immunohistochemistry (IHC). Each experiment was conducted by deparaffinizing and rehydrating the sections using xylene and ethanol. For IHC, the LSAB2 system HRP (DAKO, Carpinteria, CA, USA) kit was used. Antibody retrieval was performed in 0.1 mM citric acid (pH 6), and the experiment was conducted according to the provided instructions. The sections were blocked with blocking buffer at room temperature for 1 hour, then incubated overnight at 4° C. with primary antibodies (fibronectin, collagen 1, α-SMA). After blocking with secondary antibodies at room temperature for 1 hour, the Streptavidin-HRP system was used for 10 minutes, followed by exposure to DAB solution, hematoxylin staining, dehydration, clearing, and mounting with Canada balsam. The stained slides were examined under an optical microscope (BK51, Olympus, Japan). The staining results were quantified using the Image J program.
To examine the key factors involved in fibrosis, immunohistochemistry (IHC) was performed using the same method as in Example 6-3.

[4] = tested on: bleomycin (BLM)-induced pulmonary fibrosis animal models; test: H&E and Masson-trichrome histological evaluation of lung, BLM model; assay type: in vivo, C57BL/6N mice; conditions: BLM mice; for degree of fibrosis in the lung tissue: compared to the BLM group; for inflammation in lung tissue (H&E): both doses (Compound 1 200 and 500 μg/kg; Compound 2 100 and 200 μg/kg)
Procedure: as §4
To observe changes in lung tissue, Hematoxylin and Eosin (H&E) staining and Masson-trichrome staining were performed on lung tissue samples to assess the degree of inflammation and fibrosis.
as §5

MRC-5 cells = test: Microscopic examination of cell morphology and proliferation, TGF-β1-induced MRC-5; assay type: cell-based, human; conditions: MRC-5, TGF-β1-induced, microscope, FIG. 4a
Procedure: The effects of the two candidate compounds of sulforaphane prodrugs on cytotoxicity and morphological changes in normal lung fibroblast MRC-5 cells and diseased lung fibroblast DHLF-IPF cells were examined. The diseased lung fibroblast DHLF-IPF cell line was purchased from Lonza and cultured in FGM™-2 Fibroblast Growth Medium-2 BulletKit™ at 37° C. in a 5% CO2 incubator.
Additionally, the changes in cell morphology of two lung fibroblasts induced by TGF-β1 according to the treatments with Compound 1 and Compound 2 were examined with the naked eye through a microscope.

SMILES | expression of fibronectin and α-SMA by concentration (fibronectin and α-SMA [1]) | expression levels of fibronectin and α-SMA protein (fibronectin and α-SMA [1]) | expression levels of fibronectin and α-SMA (fibronectin and α-SMA [1]) | expression levels of fibronectin and α-SMA protein (fibronectin and α-SMA [2]) | cell migration (wound healing) (DHLF-IPF cells) | expression of α-SMA, collagen, and fibronectin in lung tissue (IHC) [3] | degree of fibrosis in the lung tissue ([4]; 100 μg/kg) | degree of fibrosis in the lung tissue ([4]; 200 μg/kg) | inflammation in lung tissue (H&E) [4] | cell morphology (MRC-5 cells) | inhibition of cell proliferation compared to sulforaphane-treated group (MRC-5 cells) | concentration with the best inhibitory effect on weight recovery and related protein expression ([3]; 200 vs 500 μg/kg) | degree of fibrosis in the lung tissue ([4]; 500 μg/kg)
C=CCOC(=O)C(CSC(=S)NCCCC[S+](C)[O-])NC(C)=O (centres unmarked) [Compound 2] | decreased in a concentration-dependent manner | significantly reducing the expression levels compared to sulforaphane | significantly decreased | significantly reducing the expression levels compared to sulforaphane | significantly inhibited in a dose-dependent manner | significant reduction in the BLM+GSF-018 group in a dose-dependent manner | significantly reduced | significantly reduced | significant reduction in inflammation at both concentrations | thin and elongated shape, which is similar to that of the control group | inhibition of cell proliferation was more significant | – | –
CCOC(=O)C(CSC(=S)NCCCC[S+](C)[O-])NC(C)=O (centres unmarked) [Compound 1] | decreased in a concentration-dependent manner | significantly reducing the expression levels compared to sulforaphane | significantly decreased | significantly reducing the expression levels compared to sulforaphane | significantly inhibited in a dose-dependent manner | significant reduction | – | significantly reduced | significant reduction in inflammation regardless of concentration | thin and elongated shape, which is similar to that of the control group | inhibition of cell proliferation was more significant | 200 µg/kg | significantly reduced
